Data as given in patent publication US20240309018A1, “THIAZOLE-LACTAM-SPIROHETEROCYCLIC COMPOUNDS AND APPLICATIONS THEREOF” (D3 BIO (WUXI) CO., LTD, priority 2021, published 2024).
Converted amounts (≈) assume the structure as drawn. Read-outs that look alike come from different tables or passages of the source.

Key:
[1] = In vivo PK study in SD rats; set-up: species or system rat; conditions: male SD rats
Experimental: Male SD rats were used as assay animals. After a single administration, the plasma concentration of the compound was measured and the pharmacokinetic behavior was evaluated.
Six healthy adult male SD rats were selected, wherein 3 rats were in an intravenous injection group and 3 rats were in an oral group. The vehicle in the intravenous injection group was 5% DMSO+95% (20% HP-β-CD). The compound to be assayed was mixed with an appropriate amount of vehicle for intravenous injection, vortexed and sonicated to prepare a clear solution of 0.2 mg/mL. The clear solution was filtered by a microporous membrane, and then ready for use. The vehicle in the oral group was 5% DMSO+95% (20% HP-β-CD). The compound to be assayed was mixed with the vehicle, vortexed and sonicated to prepare a solution of 1 mg/mL. SD rats were administered 1 mg/kg intravenously or 10 mg/kg orally, and then whole blood was collected for a certain period. Plasma was prepared. The drug concentration was analyzed by LC-MS/MS method, and the pharmacokinetic parameters were calculated by Phoenix WinNonlin software (Pharsight, USA).

canine plasma albumin = assay: Plasma protein binding (ultracentrifugation), canine; type: in vitro ADME; further: tested at 0.2 µM
Experimental: (§1) The binding degree of the assay compound to human/mouse/rat/canine/monkey plasma albumin was studied.
(§2) • 1) Matrix preparation: on the day of the assay, plasma was thawed in cold water and centrifuged at 3220 rpm for 5 min to remove all clots. The pH of the resulting plasma was measured and adjusted to 7.4±0.1 using 1% phosphoric acid or IN sodium hydroxide as needed. • 2) Dilution procedure for the assay compound: the assay compound was dissolved in dimethyl sulfoxide (DMSO) to prepare stock solutions with concentrations of 10 mM and 2 mM, respectively. A 40 μM working solution was prepared by diluting 2 μL of stock solution (2 mM) with 98 μL of DMSO. A 400 μM working solution of the control compound was prepared by diluting 10 μL of stock solution with 240 μL of DMSO. The working solution of the compound (5 μL) was mixed well with a blank matrix (995 μL) at a ratio of 1:200 to prepare a loading matrix.
(§3) • a) An equal volume of 30 μL of loading matrix (n=2) was transferred to a sample collection plate to prepare a time 0 (TO) sample for residue determination. The sample was immediately matched with the corresponding blank buffer to a final volume of 60 μL, and the volume ratio of plasma to buffer in each well was 1:1. […] The mixture was centrifuged at 4000 rpm for 20 min and 100 μL of supernatant from each sample was analyzed by LC-MS/MS.

[2] = Solubility study (HPLC-UV, phosphate buffers); type: physicochemical; conditions: 25 °C, aqueous buffer, kinetic from dmso stock, 25±2° C., 2% DMSO, theoretical maximum 200 μM
Experimental: The solubility of the compound was determined to evaluate the solubility property of the compound.
• 1) Buffer A (pH 2.0): 50 mM phosphate buffer, pH 2.0; Buffer B (pH 6.5): 50 mM phosphate buffer, pH 6.5: Buffer C (pH 7.4): 50 mM phosphate buffer, pH 7.4; • 2) Preparation of standard solution: • a) 50% acetonitrile solution and 50% buffer solution were mixed to obtain a diluent; • b) 10 mM (10 μL/compound) compound stock solution was added to the diluent (490 μL/compound) to obtain 200 μM detection standard solution; • c) The 200 μM UV detection standard solution was diluted with 10-fold and 200-fold volume of diluents to obtain 20 μM and 1 μM UV standard solutions, respectively; • d) UV standard solutions of 1 μM, 20 µM, and 200 μM were used as standard solutions for solubility assays.
• 1) The compound was dissolved in DMSO to prepare a 10 mM stock solution. […] The pH of the corresponding solubility solutions was 2.0, 6.5 and 7.4, respectively. The theoretical maximum concentration of the assay compound is 200 μM with 2% DMSO; • 3) The plate was shaken in a shaker at room temperature (25±2° C.) at 600 rpm for 24 hours; • 4) 200 μL of the solution was pipetted from the 96-well plate, filtered with suction by a vacuum suction filtration device, and transferred into a new 96-well plate as an assay sample; • 5) The compound concentration was determined using HPLC-UV.
• 6) Three UV standard solutions from low concentration to high concentration (1 μM, 20 μM, 200 μM) were injected into HPLC, and then the assay sample of the compound to be assayed was injected; • 7) The UV chromatographic peaks were integrated, and the solubility of the sample was calculated.

rat plasma albumin = assay: Plasma protein binding (ultracentrifugation), rat; type: in vitro ADME; further: tested at 0.2 µM
Experimental: as §1, §2, §3

## Cc1cccc(CN2C(=O)c3nc(-c4nc(Nc5ccnn5C)ncc4C)sc3C23COC3)n1 [WX001]
[1]; 10 mg/kg orally, AUCPO/Dose
  Oral DNAUC: 1445.79 nM · h/mpk
[1]; rat, plasma, intravenous, 1 mg/kg intravenously or 10 mg/kg orally
  clearance: 13.4 mL/min/kg
[1]; rat, plasma, intravenous, 1 mg/kg intravenously or 10 mg/kg orally, read-out: Vdss
  Vd: 1.08 L/kg
[1]; rat, plasma, 1 mg/kg intravenously or 10 mg/kg orally
  half-life: 3.77 h
[1]; rat, plasma, 1 mg/kg intravenously, 10 mg/kg orally, oral bioavailability
  bioavailability: 49%
[1]; rat, single dose, 1 mg/kg intravenously or 10 mg/kg orally, plasma
  Cmax: 2500 nM
Canine plasma albumin
  Plasma protein binding rate (unbound %): 14.3%
[2]; 50 mM phosphate buffer pH 2.0, 24 hours, read-out: Solubility at pH = 2.0
  solubility at 24 h: 200 µM (≈ 94.7 µg/mL)
[2]; 50 mM phosphate buffer pH 6.5, 24 hours, read-out: Solubility at pH = 6.5
  solubility at 24 h: 2.94 µM (≈ 1.4 µg/mL)
[2]; 50 mM phosphate buffer pH 7.4, 24 hours, read-out: Solubility at pH = 7.4
  solubility at 24 h: 2.64 µM (≈ 1.25 µg/mL)
Rat plasma albumin
  Plasma protein binding rate (unbound %): 8.4%
